# Experiment: Stability of angiotensin peptides in binding assay buffer / assay conditions
# Format: physicochemical
# Details: 4 h at 37° C., reverse phase HPLC
smiles,measurement,value
"CC[C@H](C)[C@H](NC(=O)[C@H](Cc1ccc(O)cc1)NC(=O)[C@@H](N)C(C)C)C(=O)N[C@@H](Cc1cnc[nH]1)C(=O)N1CCC[C@H]1C(=O)N[C@@H](Cc1ccccc1)C(=O)O [AIV, Val1 Tyr2 Ile3 His4 Pro5 Phe6]",hydrolysis in binding buffer,less than 10%

# — patent US6022696A, “Methods of identifying agonists or antagonists of angiotensin IV” (Washington State University Research Foundation, priority 1998, dated 2000)
